The values that follow come from US9617239B2, “Phenoxy thiophene sulfonamides and their use as inhibitors of glucuronidase” (North Carolina Central University, priority 2010, dated 2017).

For one experiment, the target named is E. coli β-glucuronidase (Escherichia coli (strain K12), UniProt P05804). The experiment in a line: β-Glucuronidase assay (4MUG hydrolysis, fluorescence). It counts as biochemical. The conditions noted are these: Table 1; compounds from 35,000 compound diversity set library; 50 pM enzyme, 125 uM 4MUG; read-out: IC50, β-Glucuronidase Inhibitory activity of phenoxythiophene sulfonamides.

A further experiment deals with rats. The conditions noted are these: background, reference 14; cited from earlier work.

As for `COc1ccc2ccc(Oc3ccc([S+](=O)([O-])NCc4cccc5ccccc45)s3)cc2c1` [BRITE-354458], at E. coli β-glucuronidase, the half-maximal inhibitory concentration (IC50) worked out at 175 µM. The same measure, in the same setting: to `O=[S+]([O-])(NCc1cccc2ccccc12)c1ccc(Oc2ccc3c(c2)CCCC3)s1` [BRITE-355030] belongs 149 µM. For the molecule `O=[S+]([O-])(NCc1cccc2ccccc12)c1ccc(Oc2ccc(OCc3ccccc3)cc2)s1` [BRITE-355169], the half-inhibitory concentration (IC50) on E. coli β-glucuronidase worked out at 153 µM. The same measure, in the same setting: the value for `O=[S+]([O-])(NCc1cccc2ccccc12)c1cc(Cl)c(Oc2cccc(-c3ccccc3)c2)s1` [BRITE-355180] was 102 µM; that for `COc1cccc(OC)c1Oc1sc([S+](=O)([O-])NCc2cccc3ccccc23)cc1Cl` [BRITE-355201] was 202 µM. For the molecule `O=[S+]([O-])(NCc1cccc2ccccc12)c1cc(Cl)c(Oc2cccnc2)s1` [BRITE-355211], at E. coli β-glucuronidase, the IC50 came to 192 µM. As to `Cc1cc(Oc2sc([S+](=O)([O-])NCc3cccc4ccccc34)cc2Cl)cc(C(C)C)c1` [BRITE-355214], the half-inhibitory concentration (IC50) at E. coli β-glucuronidase was 135 µM. `CCCOc1ccc(Oc2sc([S+](=O)([O-])NCc3cccc4ccccc34)cc2Cl)cc1` [BRITE-355221]: the half-inhibitory concentration (IC50) on E. coli β-glucuronidase was 402 µM. The same measure, in the same setting: the value for `O=[S+]([O-])(NCc1cccc2ccccc12)c1cc(Cl)c(Oc2ccc3c(c2)OCO3)s1` [BRITE-355233] was 376 µM. On the same count and under the same terms, the value for `Cc1cc(C)cc(Oc2sc([S+](=O)([O-])NCc3cccc4ccccc34)cc2Cl)c1` [BRITE-355234] was 152 µM. Take `O=[S+]([O-])(NCc1cccc2ccccc12)c1cc(Cl)c(Oc2ccc3c(c2)CCCC3)s1` [BRITE-355244]: the 50% inhibitory concentration (IC50) at E. coli β-glucuronidase came out at 123 µM. As to `O=[S+]([O-])(NCc1cccc2ccccc12)c1cc(Cl)c(Oc2ccccc2)s1` [BRITE-355253], the concentration for half-maximal inhibition (IC50) at E. coli β-glucuronidase amounted to 444 µM.

Regarding `O=C1OC(C(O)C(=O)O)C(O)C1O` (stereo not shown) [saccharic acid 1,4-lactone], the “reversal of SN-38-related epithelial cell death and severe diarrhea from CPT-11” value with rats was “partially reversed”.
